Source: patent US7265152B2 (ViroPharma Incorporated, priority 2002, dated 2007)
Where two headings read alike, the source gives them in different places.

Experiments:
[1] = system: HCV replicon (BB7 sequence) in Huh-7-Clone A cells; experiment: HCV replicon assay: ELISA of NS5A protein in replicon-containing cells (Inhibition of Viral RNA Replication); assay type: cell-based; conditions: read-out: Replicon
Summary of the method: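 EC50 taken from an 8-point serially diluted dose curve, with NS5A level as read-out: fixed cells probed with primary monoclonal and HRP-conjugated secondary, TMB developed 30 min, OD 650 nm. Compound exposure 72 h in Huh-7-Clone A replicon cells (BB7 sequence).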

HCV NS5B = biological target: T1, HCV NS5B (Hepatitis C virus genotype 1b, UniProt Q9WMX2); experiment: Inhibition of viral RNA-dependent RNA polymerase (RdRp), in vitro biochemical assay; design: species or system HCV genotype 1b virus (BB7); conditions: HCV NS5B RdRp, read-out: HCV pol-BB7 IC50
T1 construct: fusion protein, of which the carboxyl terminal 21 amino acids were removed to enhance its solubility; His tag (GSHHHHHH); made in house; host or cells: E. coli
Summary of the method: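 IC50 values are the concentrations that halve in vitro RNA synthesis by HCV NS5B polymerase. The enzyme was a C-terminally truncated (Δ21), His-tagged genotype 1b (BB7 consensus) protein purified from E. coli.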

[2] = Hepatitis C virus, ranges of EC50 in HCV replicon assay
[3] = Hepatitis C virus, HCV replicon, range of EC50

Compound | EC50 [1, 2] [µM] | IC50 (HCV NS5B; BB7 genotype 1b) [µM] | EC50 [1, 3] [µM] | IC50 (HCV NS5B; BB7, reported as range class) [µM] | EC50 ([1]; HCV replicon, range of EC50) [µM]
CNC(=O)c1c(-c2ccc(F)cc2)oc2cc(N3CCOCC3)c(OCc3ccc(F)cc3)cc12 [Example 167, 5-(4-Fluoro-benzyloxy)-2-(4-fluoro-phenyl)-6-morpholin-4-yl-benzofuran-3-carboxylic acid methylamide] | < 1 | 0.5 to 5 |  |  | 
CNC(=O)c1c(-c2ccc(F)cc2)oc2cc(-c3cnco3)c(OC(C)C)cc12 [Example 168, 2-(4-Fluoro-phenyl)-5-isopropoxy-6-oxazol-5-yl-benzofuran-3-carboxylic acid methylamide] | < 10 | ≤ 0.5 |  |  | 
CNC(=O)c1c(-c2ccc(F)cc2)oc2cc(S(=O)(=O)N3CCC(O)CC3)c(OC(C)C)cc12 [Example 169, 2-(4-Fluoro-phenyl)-6-(4-hydroxy-piperidine-1-sulfonyl)-5-isopropoxy-benzofuran-3-carboxylic acid methylamide] | < 1 | ≤ 0.5 |  |  | 
CNC(=O)c1c(-c2ccc(F)cc2)oc2cc(N3CCC(F)(F)CC3)c(OC(C)C)cc12 [Example 170, 6-(4,4-Difluoro-piperidin-1-yl)-2-(4-fluoro-phenyl)-5-isopropoxy-benzofuran-3-carboxylic acid methylamide] | < 1 | 5 to 30 |  |  | 
CNC(=O)c1c(-c2ccc(F)cc2)oc2cc(N3CCC(F)CC3)c(OC(C)C)cc12 [Example 171, 2-(4-Fluoro-phenyl)-6-(4-fluoro-piperidin-1-yl)-5-isopropoxy-benzofuran-3-carboxylic acid methylamide] | < 1 | 0.5 to 5 |  |  | 
CNC(=O)c1c(-c2ccc(F)cc2)oc2cc(N3CCOCC3)c(OC(F)F)cc12 [Example 172, 5-Difluoromethoxy-2-(4-fluoro-phenyl)-6-morpholin-4-yl-benzofuran-3-carboxylic acid methyalmide] |  |  | < 1 | ≤ 0.5 | 
CNC(=O)c1c(-c2ccc(F)cc2)oc2cc(N3CCOCC3)c(OC3CCCC3)cc12 [Example 173, 5-Cyclopentyloxy-2-(4-fluoro-phenyl)-6-morpholin-4-yl-benzofuran-3-carboxylic acid mehtylamide] |  |  | < 1 | ≤ 0.5 | 
CNC(=O)c1c(-c2ccc(F)cc2)oc2cc(NS(C)(=O)=O)c(O)cc12 [Example 174, 2-(4-Fluoro-phenyl)-5-hydroxy-6-methanesulfonylamino-benzofuran-3-carboxylic acid methylamide] |  |  | < 30 | 0.5 to 5 | 
CNC(=O)c1c(-c2ccc(F)cc2)oc2cc(S(=O)(=O)N3CCSCC3)c(OC(C)C)cc12 [Example 175, 2-(4-Fluoro-phenyl)-5-isopropoxy-6-(thiomorpholine-4-sulfonyl)-benzofuran-3-carboxylic acid methylamide] |  |  | < 1 | ≤ 0.5 | 
CNC(=O)c1c(-c2ccc(F)cc2)oc2cc(S(=O)(=O)N3CCC(O)C3)c(OC(C)C)cc12 (stereo not drawn) [Example 176, 2-(4-Fluoro-phenyl)-6-(3-hydroxy-pyrrolidine-1-sulfonyl)-5-isopropoxy-benzofuran-3-carboxylic acid methylamide] |  |  | < 1 | ≤ 0.5 | 
CNC(=O)c1c(-c2ccc(F)cc2)oc2cc(-c3ccncc3)c(OC(C)C)cc12 [Example 177, 2-(4-Fluoro-phenyl)-5-isopropoxy-6-pyridin-4-yl-benzofuran-3-carboxylic acid methylamide] |  |  | < 10 | ≤ 0.5 | 
CNC(=O)c1c(-c2ccc(F)cc2)oc2cc(-c3cccc(S(C)(=O)=O)c3)c(OC(C)C)cc12 [Example 178, 2-(4-Fluoro-phenyl)-5-isopropoxy-6-(3-methanesulfonyl-phenyl)-benzofuran-3-carboxylic acid methylamide] |  |  | < 10 | ≤ 0.5 | 
CNC(=O)c1c(-c2ccc(F)cc2)oc2cc(-c3ccc(S(C)(=O)=O)cc3)c(OC(C)C)cc12 [Example 179, 2-(4-Fluoro-phenyl)-5-isopropoxy-6-(4-methanesulfonyl-phenyl)-benzofuran-3-carboxylic acid methylamide] |  |  | < 10 | ≤ 0.5 | 
CNC(=O)c1c(-c2ccc(F)cc2)oc2cc(N3CCOCC3)c(OCCCl)cc12 [Example 180, 5-(2-Chloro-ethoxy)-2-(4-fluoro-phenyl)-6-morpholin-4-yl-benzofuran-3-carboxylic acid methylamide] |  |  | > 30 | ≤ 0.5 | 
CNC(=O)c1c(-c2ccc(F)cc2)oc2cc(OCc3ccccc3)c(OC)cc12 [Example 181, 6-Benzyloxy-2-(4-fluoro-phenyl)-5-methoxy-benzofuran-3-carboxylic acid methylamide] |  |  | < 10 | ≤ 0.5 | 
CNC(=O)c1c(-c2ccc(F)cc2)oc2cc(N)c(O)cc12 [Example 182, 6-Ainino-2-(4-fluoro-phenyl)-5-hydroxy-benzofuran-3-carboxylic acid methylamide] |  |  | < 30 | 0.5 to 5 | 
CNC(=O)c1c(-c2ccc(F)cc2)oc2cc(OCc3ccccc3)c(OCc3ccccc3)cc12 [Example 183, 5,6-Bis-benzyloxy-2-(4-fluoro-phenyl)-benzofuran-3-carboxylic acid methylamide] |  |  | < 10 | > 30 | 
CNC(=O)c1c(-c2ccc(F)cc2)oc2cc(-c3noc(C(F)(F)F)n3)c(OC(C)C)cc12 [Example 184, 2-(4-Fluoro-phenyl)-5-isopropoxy-6-(5-trifluoromethyl-[1,2,4]oxadiazol-3-yl)-benzofuran-3-carboxylic acid methylamide] |  |  | < 30 | 0.5 to 5 | 
CNC(=O)c1c(-c2ccc(F)cc2)oc2cc(N3CCN(C(N)=O)CC3)c(OC(C)C)cc12 [Example 185, [2-(4-Fluoro-phenyl)-5-isopropoxy-3-methylcarbamoyl-benzofuran-6-yl]-piperazine-1-carboxylic acid amide] |  |  |  | 5 to 30 | < 10
CNC(=O)c1c(-c2ccc(F)cc2)oc2cc(N3CCSCC3)c(OC(C)C)cc12 [Example 186, 2-(4-Fluoro-phenyl)-5-isopropoxy-6-thiomorpholin-4-yl-benzofuran-3-carboxylic acid methylamide] |  |  | < 1 | ≤ 0.5 | 
CNC(=O)c1c(-c2ccc(F)cc2)oc2cc(C(=O)O)c(OC(C)C)cc12 [Example 187, 2-(4-Fluoro-phenyl)-5-isopropoxy-3-methylcarbamoyl-benzofuran-6-carboxylic acid] |  |  | < 10 | 5 to 30 | 
CNC(=O)c1c(-c2ccc(F)cc2)oc2cc(N3CC[S+]([O-])CC3)c(OC(C)C)cc12 [Example 188, 2-(4-Fluoro-phenyl)-5-isopropoxy-6-(1-oxo-thiomorpholin-4-yl)-benzofuran-3-carboxylic acid methylamide] |  |  | < 10 | 5 to 30 | 
CNC(=O)c1c(-c2ccc(F)cc2)oc2cc(N(CC(=O)O)S(C)(=O)=O)c(OC(C)C)cc12 [Example 189, {[2-(4-Fluoro-phenyl)-5-isopropoxy-3-methylcarbamoyl-benzofuran-6-yl]-methanesulfonyl-amino}-acetic acid] |  |  | < 1 | 0.5 to 5 | 
CNC(=O)c1c(-c2ccc(F)cc2)oc2cc(N(C3CCC3)S(C)(=O)=O)c(OC(C)C)cc12 [Example 190, 6-(Cyclobutyl-methanesulfonyl-amino)-2-(4-fluoro-phenyl)-5-isopropoxy-benzofuran-3-carboxylic acid methylamide] |  |  | < 1 | ≤ 0.5 | 
CNC(=O)c1c(-c2ccc(F)cc2)oc2cc(N(CCN3CCOCC3)S(C)(=O)=O)c(OC(C)C)cc12 [Example 191, 2-(4-Fluoro-phenyl)-5-isopropoxy-6-[methanesulfonyl-(2-morpholin-4-yl-ethyl)-amino]-benzofuran-3-carboxylic acid methylamide] |  |  | < 1 | ≤ 0.5 | 
CNC(=O)c1c(-c2ccc(F)cc2)oc2cc(O)c(O)cc12 [Example 192, 2-(4-Fluoro-phenyl)-5,6-dihydroxy-benzofuran-3-carboxylic acid methylamide] |  |  | > 30 | 5 to 30 | 
CNC(=O)c1c(-c2ccc(F)cc2)oc2cc(N(CCOC)S(C)(=O)=O)c(OC(C)C)cc12 [Example 193, 2-(4-Fluoro-phenyl)-5-isopropoxy-6-[methanesulfonyl-(2-methoxy-ethyl)-amino]-benzofuran-3-carboxylic acid methylamide] |  |  | < 1 | ≤ 0.5 | 
C=CCN(c1cc2oc(-c3ccc(F)cc3)c(C(=O)NC)c2cc1OC(C)C)S(C)(=O)=O [Example 195, 6-(Allyl-methanesulfonyl-amino)-2-(4-fluoro-phenyl)-5-isopropoxy-benzofuran-3-carboxylic acid methylamide] |  |  | < 1 | ≤ 0.5 | 
CNC(=O)c1c(-c2ccc(F)cc2)oc2cc(C(C)=O)c(OC(C)C)cc12 [Example 196, 6-Acetyl-2-(4-fluoro-phenyl)-5-isopropoxy-benzofuran-3-carboxylic acid methyladime] |  |  | < 1 | ≤ 0.5 | 
CC(C)NC(=O)c1c(-c2ccc(F)cc2)oc2cc(NS(C)(=O)=O)c(OC(C)C)cc12 [Example 197, 2-(4-Fluoro-phenyl)-5-isopropoxy-6-methanesulfonylamino-benzofuran-3-carboxylic acid isopropylamide] |  |  | < 10 | 5 to 30 | 
